Source: US6527981B1, “Azole/amine oxide preservatives” (Lonza Inc., priority 1999, dated 2003)
≈ marks a conversion by molar mass, not a printed value. Like-named read-outs stand apart in the source and are kept apart here. One block for each compound: values may come before it.

Columns and labels:
[1] = tested on: G. trabeum (brown rot fungi); test: agar dilution plate method, wood rot fungi (MIC, IC50, percent retardation); assay type: cell-based; settings: for MIC: Gloeophyllum trabeum
[2] = tested on: T. versicolor (white rot fungi); test: as above; assay type: cell-based; settings: for MIC: Trametes versicolor
[3] = cited from earlier work; for Solubility in Water^b: Material Safety Data Sheet; for Solubility in water^a: The Pesticide Manual, 11th Edition
[4] = tested on: C. globosum (soft rot decay fungi); test: agar dilution plate method, wood rot fungi (MIC, IC50, percent retardation); assay type: cell-based; settings: for MIC: Chaetomium globosum; for C. globosum IC50 / IC50 C. globosum: Table2D curve fitting; for MIC C. globosum: Table 8; for MIC C. globosum / IC50 C. globosum: ppm of amine oxide or didecyldimethyl ammonium chloride
[5] = tested on: P. placenta (brown rot fungi); test: as above; assay type: cell-based
[6] = azole alone, read-out: G. trabeum MIC
[7] = azole alone, Table2D curve fitting
[8] = azole alone, read-out: T. versicolor MIC
[9] = azole alone, read-out: C. globosum MIC
[10] = azole alone, read-out: P. placenta MIC
[11] = amine oxide alone, 100% growth retardation
[12] = Table 8, ppm of amine oxide or didecyldimethyl ammonium chloride
[13] = ppm of amine oxide or didecyldimethyl ammonium chloride, Table2D curve fitting
[14] = amine oxide alone, 100% growth retardation, read-out: MIC (ppm of amine oxides) G. trabeum
[15] = amine oxide alone, 100% growth retardation, read-out: MIC (ppm of amine oxides) T. versicolor
[16] = amine oxide alone, 100% growth retardation, read-out: MIC (ppm of amine oxides) C. globosum
[17] = amine oxide alone, 100% growth retardation, read-out: MIC (ppm of amine oxides) P. placenta

Compound: N#CC(CCc1ccc(Cl)cc1)(Cn1cncn1)c1ccccc1 (stereo not drawn) [Fenbuconazole, fenbuconazole]
MIC [1, 6]: 50 µg/mL (≈ 148 µM)
G. trabeum IC50 [1, 7]: 0.3 ppm
MIC [2, 8]: 25 µg/mL (≈ 74.2 µM)
T. versicolor IC50 [2, 7]: 1.1 ppm
Solubility in Water^b ([3]; 25° C.): 4 ppm at 25 °C
Solubility in water^a ([3]; 25° C.): 0.2 ppm/25 °C
MIC [4, 9]: 50 µg/mL (≈ 148 µM)
C. globosum IC50 ([4]; azole alone): 10.7 ppm
P. placenta IC50 [5, 7]: 3.9 ppm
MIC [5, 10]: 25 µg/mL (≈ 74.2 µM)

Compound: branched alkyl (C10-C14) dimethylamine oxide [Branched alkyl (C10-C14) DMAO]
IC50 G. trabeum [1]: 44 ppm
MIC (ppm of amine oxides) G. trabeum [1]: 250 ppm
MIC G. trabeum [1]: 250 ppm
Qa, concentration of amine oxide alone required to yield 100% retardation, G. trabeum [1]: 250 ppm
IC50 T. versicolor [2]: 84 ppm
MIC (ppm of amine oxides) T. versicolor [2]: 500 ppm
MIC T. versicolor [2]: 500 ppm
Qa, concentration of amine oxide alone required to yield 100% retardation, T. versicolor [2]: 500 ppm
MIC C. globosum [4]: >1000 ppm
MIC (ppm of amine oxides) C. globosum [4, 11]: >1000 ppm
IC50 C. globosum [4]: 153 ppm
IC50 P. placenta [5]: 89 ppm
MIC (ppm of amine oxides) P. placenta [5]: 500 ppm
MIC P. placenta [5]: 500 ppm
Qa, concentration of amine oxide alone required to yield 100% retardation, P. placenta [5]: 500 ppm

Compound: coco-alkyl (C12-C16) dimethylamine oxide [Coco-DMAO]
MIC G. trabeum [1, 12]: 500 ppm
Qa, concentration of amine oxide alone required to yield 100% retardation, G. trabeum ([1]; amine oxide alone): 500 ppm
MIC (ppm of amine oxides) G. trabeum [1, 11]: 500 ppm
IC50 G. trabeum [1, 13]: 9 ppm
MIC T. versicolor [2, 12]: 750 ppm
Qa, concentration of amine oxide alone required to yield 100% retardation, T. versicolor ([2]; amine oxide alone): 750 ppm
MIC (ppm of amine oxides) T. versicolor [2, 11]: 750 ppm
IC50 T. versicolor [2, 13]: 51 ppm
MIC C. globosum [4]: >1000 ppm
MIC (ppm of amine oxides) C. globosum [4, 11]: >1000 ppm
IC50 C. globosum [4]: 47 ppm
MIC P. placenta [5, 12]: 1000 ppm
MIC (ppm of amine oxides) P. placenta [5, 11]: 500-1000 ppm
IC50 P. placenta [5, 13]: 5 ppm

Compound: CCCC1COC(Cn2cncn2)(c2ccc(Cl)cc2Cl)O1 (stereo not drawn) [Propiconazole, propiconazole]
MIC [1, 6]: > 50 µg/mL
Qb, concentration of azole alone required to yield 100% retardation, G. trabeum ([1]; azole alone): 50 ppm
G. trabeum IC50 [1, 7]: 0.9 ppm
MIC [2, 8]: 50 µg/mL (≈ 146 µM)
Qb, concentration of azole alone required to yield 100% retardation, T. versicolor ([2]; azole alone): 50 ppm
T. versicolor IC50 [2, 7]: 3 ppm
MIC [4, 9]: > 50 µg/mL
C. globosum IC50 ([4]; azole alone): 11.7 ppm
Qb, concentration of azole alone required to yield 100% retardation, P. placenta ([5]; azole alone): 50 ppm
P. placenta IC50 [5, 7]: 0.7 ppm
MIC [5, 10]: 50 µg/mL (≈ 146 µM)

MIC [1, 14]: 1000 µg/mL (≈ 5770 µM)
MIC [2, 15]: 750 µg/mL (≈ 4330 µM)
MIC [4, 16]: > 1000 µg/mL
MIC [5, 17]: 1000 µg/mL (≈ 5770 µM)
Compound: CCCCCCCC[N+](C)(C)[O-] [Octyldimethylamine oxide, octyl dimethylamine oxide]
Qa, concentration of amine oxide alone required to yield 100% retardation, G. trabeum ([1]; amine oxide alone): 1000 ppm
Qa, concentration of amine oxide alone required to yield 100% retardation, T. versicolor ([2]; amine oxide alone): 750 ppm
Qa, concentration of amine oxide alone required to yield 100% retardation, P. placenta ([5]; amine oxide alone): 1000 ppm

Compound: CCCCC(C#N)(Cn1cncn1)c1ccc(Cl)cc1 (stereo not drawn) [Myclobutanil, myclobutanil]
MIC [1, 6]: > 50 µg/mL
G. trabeum IC50 [1, 7]: 4.3 ppm
MIC [2, 8]: 50 µg/mL (≈ 173 µM)
T. versicolor IC50 [2, 7]: 6 ppm
Solubility in Water^b ([3]; 25° C.): 142 ppm at 25 °C
Solubility in water^a ([3]; 25° C.): 142 ppm/25 °C
MIC [4, 9]: > 50 µg/mL
P. placenta IC50 [5, 7]: 13 ppm
MIC [5, 10]: 50 µg/mL (≈ 173 µM)

Compound: CC(C)(C)C(=O)C(Oc1ccc(Cl)cc1)n1cncn1 (stereo not drawn) [Triadimefon, triadimefon]
Solubility in Water^b ([3]; 20° C.): 64 ppm at 20 °C
Solubility in water^a ([3]; 20° C.): 64 ppm/20 °C

Compound: CCCCCCCC/C=C\CCCCCCCC[N+](C)(C)[O-] [Oleyl-DMAO]
MIC (ppm of amine oxides) G. trabeum [1, 11]: >1000 ppm
MIC (ppm of amine oxides) T. versicolor [2, 11]: >1000 ppm
MIC (ppm of amine oxides) C. globosum [4, 11]: >1000 ppm
MIC (ppm of amine oxides) P. placenta [5, 11]: >1000 ppm

Compound: CCCCCCCCCCCC[N+]1([O-])CCOCC1 [Lauryl morpholine N-oxide, lauryl morpholine N-oxide]
Qa, concentration of amine oxide alone required to yield 100% retardation, G. trabeum ([1]; amine oxide alone): 1000 ppm
MIC (ppm of amine oxides) G. trabeum [1, 11]: 1000 ppm
Qa, concentration of amine oxide alone required to yield 100% retardation, T. versicolor ([2]; amine oxide alone): 750 ppm
MIC (ppm of amine oxides) T. versicolor [2, 11]: 750 ppm
MIC (ppm of amine oxides) C. globosum [4, 11]: >1000 ppm
Qa, concentration of amine oxide alone required to yield 100% retardation, P. placenta ([5]; amine oxide alone): 500 ppm
MIC (ppm of amine oxides) P. placenta [5, 11]: 500 ppm

Compound: CCCCCCCCCCCCCCCCCCCCCC[N+](C)(C)[O-] [Behenyl DMAO]
Qa, concentration of amine oxide alone required to yield 100% retardation, G. trabeum ([1]; amine oxide alone): 1000 ppm
MIC (ppm of amine oxides) G. trabeum [1, 11]: >1000 ppm
Qa, concentration of amine oxide alone required to yield 100% retardation, T. versicolor ([2]; amine oxide alone): 1000 ppm
MIC (ppm of amine oxides) T. versicolor [2, 11]: >1000 ppm
MIC (ppm of amine oxides) C. globosum [4, 11]: >1000 ppm
Qa, concentration of amine oxide alone required to yield 100% retardation, P. placenta ([5]; amine oxide alone): 1000 ppm
MIC (ppm of amine oxides) P. placenta [5, 11]: >1000 ppm

MIC [1, 14]: 250 µg/mL (≈ 1240 µM)
MIC [2, 15]: 750 µg/mL (≈ 3720 µM)
MIC [4, 16]: > 1000 µg/mL
MIC [5, 17]: 500 µg/mL (≈ 2480 µM)
Compound: CCCCCCCCCC[N+](C)(C)[O-] [Decyl-DMAO, decyl dimethylamine oxide]
Qa, concentration of amine oxide alone required to yield 100% retardation, G. trabeum ([1]; amine oxide alone): 250 ppm
Qa, concentration of amine oxide alone required to yield 100% retardation, T. versicolor ([2]; amine oxide alone): 750 ppm
Qa, concentration of amine oxide alone required to yield 100% retardation, P. placenta ([5]; amine oxide alone): 500 ppm
